Test results as given in US12329158B2, “Large-scale methods of uniformly coating packaging surfaces with a volatile antimicrobial to preserve food freshness” (AGROFRESH INC., priority 2013, dated 2025).
Values after ≈ are worked out from the molar mass of the structure shown.

Tests used:
[1] = tested on: Trichophyton mentagrophytes; assay: In vitro volatile assay (Example 26); type: cell-based; conditions: 5 days at 28 C, 100% control; for MIC: Trichophyton mentagrophytes, 120 h, read-out: MIC (mg/L) Trichophyton mentagrophytes
Procedure: (§1) Volatile assay: 6-well (16.5 mL volume per well) microtiter plates are used in an in vitro inhibition assay for Compounds A and 31, and compared to other registered fungicides (5-fluorocytosine, Amphotericin B, aspofungin diacetate, Fluconazole and Itraconazole). A 7.5-mL volume of half strength PDA is added to each well. After drying, a mycelial plug (5 mm diameter) is aseptically obtained from actively growing cultures of Epidermophyton floccus, Trichophyton rubrum, or Trichophyton mentagrophytes and placed at the center of the plate with the mycelial side in contact with the agar. A Whatman #1 filter disk (Cat. No. 1001-325) is placed, in duplicate, on the underside of a polyethylene PCR plate sealing film. […] The headspace around the inoculum is then sealed inside the well by the film with the adhering disk containing the fungicide and incubated inverted for 5 days at 28° C.

[2] = tested on: Epidermophyton floccus; assay: In vitro volatile assay (Example 26); type: cell-based; conditions: 5 days at 28 C, 100% control; for MIC: Epidermophyton, 120 h, read-out: MIC (mg/L) Epidermophyton floccus
Procedure: as §1

[3] = tested on: Trichophyton rubrum; assay: In vitro volatile assay (Example 26); type: cell-based; conditions: 5 days at 28 C, 100% control; for MIC: Trichophyton rubrum, 120 h, read-out: MIC (mg/L) Trichophyton rubrum
Procedure: as §1

[4] = tested on: Trichophyton mentagrophytes; assay: In vitro contact assay (Example 26); type: cell-based; conditions: 5 days at 28 C, 100% control; for MIC: Trichophyton mentagrophytes, 120 h, read-out: MIC (mg/L) Trichophyton mentagrophytes
Procedure: (§2) Half-strength Potato Dextrose Agar (PDA) is amended with a mixture of one of the test compounds in acetone or methanol to a final concentration of 50, 10, 2, 0.4 or 0.08 mg/L. A 3-mL volume of the amended media is added to each well of the microtiter plate. […] The plates are sealed with a clear film and incubated inverted for 5 days at 28° C.

[5] = tested on: Epidermophyton floccus; assay: In vitro contact assay (Example 26); type: cell-based; conditions: 5 days at 28 C, 100% control; for MIC: Epidermophyton, 120 h, read-out: MIC (mg/L) Epidermophyton floccus
Procedure: as §2

[6] = tested on: Trichophyton rubrum; assay: In vitro contact assay (Example 26); type: cell-based; conditions: 5 days at 28 C, 100% control; for MIC: Trichophyton rubrum, 120 h, read-out: MIC (mg/L) Trichophyton rubrum
Procedure: as §2

[7] = tested on: Penicillium expansum; assay: Blue mold on apple and pear, contact assay (Example 25); type: in vivo; conditions: Contact (dip); rate not given; day 3 at 21 C after 5 days at 1 C
Procedure: (§3) A 250 mL solution of each concentration is used to dip two inoculated fruits, one minute per fruit, performed in triplicate per rate. The dipped fruits are then placed back into the clamshells and then into the SnapWare container and incubated at 1° C. for 5 days. […] Volatile application of Compound A results in excellent inhibition of browning and sporulation, whereas all other active ingredients result in no or little inhibition.

[8] = tested on: Penicillium digitatum; assay: Green mold on orange, volatile assay (Example 25); type: in vivo; conditions: 50 mg/L, day 3 at 21 C after 5 days at 1 C
[9] = tested on: Penicillium expansum; assay: Blue mold on apple and pear, volatile assay (Example 25); conditions: 50 mg/L, day 3 at 21 C after 5 days at 1 C
Procedure: Two apples, pears or oranges are placed in a clamshell, and three fresh wounds are made near the equatorial region of each fruit. Each fruit wound is then inoculated with 20 μL of 1×10^6 spores per mL of Penicillium expansum or digitatum suspension, respectively. The inoculum is allowed to dry for two hours prior to treatment application as a volatile or contact.
Volatile Assay: Clamshells are then placed at the bottom of a 2.55-L SnapWare airtight container (Model #109842). […] The solutions are pipetted into Whatman filter disks mounted to the inside lid of the container. The chambers are then incubated at 1° C. for 5 days, removed to 21° C., and evaluated on day 3 by determining the diameter (mm) of rot development (browning) or sporulation.

[10] = tested on: Penicillium digitatum; assay: Green mold on orange, contact assay (Example 25); type: in vivo; conditions: Contact (dip); rate not given; day 3 at 21 C after 5 days at 1 C
Procedure: as §3

[11] = tested on: Botrytis cinerea; assay: Volatile MIC assay (Example 9); type: cell-based; conditions: 72 h, headspace concentration, 3 days at 23 C, read-out: MIC (mg/L) BOTRCI
Procedure: (§4) A 3-mL volume of full-strength Potato Dextrose Agar (PDA) is added to each well. […] Plates are inoculated immediately prior to volatile fungicide treatment. A Whatman #1 filter disk (Cat. No. 1001-0155) is placed, in duplicate, on the underside of a polyethylene PCR plate sealing film. […] The acetone is permitted to evaporate for 5 minutes. The headspace around the inoculum is then sealed inside the well by the film with the adhering disk containing the fungicide by inverting the plates over the treated disks and sealing to prevent any of the chemical from flaking from the disk and falling onto the inoculated agar.

[12] = tested on: Penicillium expansum; assay: Volatile MIC assay (Example 9); type: cell-based; conditions: 72 h, headspace concentration, 3 days at 23 C, read-out: MIC (mg/L) PENIEX
Procedure: as §4

[13] = tested on: Glomerella cingulata; assay: Volatile MIC assay (Example 9); type: cell-based; conditions: Colletotrichum gloeosporioides, 72 h, headspace concentration, 3 days at 23 C, read-out: MIC (mg/L) GLOMCI
Procedure: as §4

[14] = tested on: Monilinia fructicola; assay: Volatile MIC assay (Example 9); type: cell-based; conditions: 72 h, headspace concentration, 3 days at 23 C, read-out: MIC (mg/L) MONIFC
Procedure: as §4

[15] = tested on: Alternaria alternata; assay: Volatile MIC assay (Example 9); type: cell-based; conditions: 72 h, headspace concentration, 3 days at 23 C, read-out: MIC (mg/L) ALTEAL
Procedure: as §4

[16] = tested on: Botrytis cinerea; assay: In vitro volatile assay (Example 24); type: cell-based; conditions: 72 h, headspace, 100% control, 3 days at 23 C, read-out: Volatile MIC (mg/L) B. cinerea
Procedure: (§5) Volatile assay: 12-well (6.5 mL volume per well) microtiter plates are used. A 3-mL volume of half strength PDA is added to each well. […] A Whatman #1 filter disk (Cat. No. 1001-0155) is placed, in duplicate, on the underside of a polyethylene PCR plate sealing film. […] The acetone is permitted to evaporate for 5 minutes. The headspace around the inoculum is then sealed inside the well by the film with the adhering disk containing the fungicide. Plates are inverted, placed over the treated disks, and sealed to prevent any of the chemical from flaking from the disk and falling onto the inoculated agar. […] Contact assay: 6-well (16.5 mL volume per well) microtiter plates are used for an in vitro inhibition assay. […] A 7.5-mL volume of the amended media is added to each well of the microtiter plate. […] The plates are sealed with a clear film and incubated for 3 days at 23° C. After incubation, plates are evaluate for percent growth relative to acetone only control.

[17] = tested on: Penicillium expansum; assay: In vitro volatile assay (Example 24); type: cell-based; conditions: 72 h, headspace, 100% control, 3 days at 23 C, read-out: Volatile MIC (mg/L) P. expansum
Procedure: as §5

[18] = tested on: P. expansum; assay: In vitro contact assay, amended agar (Example 24); type: cell-based; conditions: Penicillium expansum, 72 h; amended agar; 100% control; 3 days at 23 C; read-out: Contact MIC (mg/L) P. expansum
Procedure: (§6) Contact assay: 6-well (16.5 mL volume per well) microtiter plates are used for an in vitro inhibition assay. […] A 7.5-mL volume of the amended media is added to each well of the microtiter plate. […] The plates are sealed with a clear film and incubated for 3 days at 23° C. After incubation, plates are evaluate for percent growth relative to acetone only control.

[19] = tested on: B. cinerea; assay: In vitro contact assay, amended agar (Example 24); type: cell-based; conditions: Botrytis cinerea, 72 h; amended agar; 100% control; 3 days at 23 C; read-out: Contact MIC (mg/L) B. cinerea
Procedure: as §6

Compound	Apple Browning (mm) [7] [mm]	Apple Sporulation (mm) [7] [mm]	Pear Browning (mm) [7] [mm]	Pear Sporulation (mm) [7] [mm]	Orange Sporulation (mm) [8] [mm]	Apple Browning (mm) [9] [mm]	Apple Sporulation (mm) [9] [mm]	Pear Browning (mm) [9] [mm]	Pear Sporulation (mm) [9] [mm]	Orange Sporulation (mm) [10] [mm]	MIC [11] [mg/L]	MIC [12] [mg/L]	MIC [13] [mg/L]	MIC [14] [mg/L]	MIC [15] [mg/L]	further results
Caspofungin diacetate																MIC (mg/L) Trichophyton mentagrophytes [1]: >50 mg/L; MIC (mg/L) Epidermophyton floccus [2]: >50 mg/L; MIC (mg/L) Trichophyton rubrum [3]: >50 mg/L; MIC (mg/L) Trichophyton mentagrophytes [4]: 50.0 mg/L; MIC (mg/L) Epidermophyton floccus [5]: 2.0 mg/L; MIC (mg/L) Trichophyton rubrum [6]: 10.0 mg/L
O=C(Nc1ccccc1-c1ccc(Cl)cc1)c1cccnc1Cl [Boscalid]	7.0	0.8	8.6	2.3	30.3	10.3	2.4	14.3	3.6	>50						
COCCOB1OCc2ccccc21 [Compound 8]											2.2 (≈ 11.5 µM)	35.7 (≈ 186 µM)	71.4 (≈ 372 µM)	4.5 (≈ 23.4 µM)	8.9 (≈ 46.3 µM)	
CCC(C)n1ncn(-c2ccc(N3CCN(c4ccc(OCC5COC(Cn6cncn6)(c6ccc(Cl)cc6Cl)O5)cc4)CC3)cc2)c1=O (stereo not drawn) [Itraconazole]																MIC [1]: > 50 mg/L; MIC [2]: > 50 mg/L; MIC [3]: > 50 mg/L; MIC [4]: > 50 mg/L; MIC [5]: > 50 mg/L; MIC [6]: > 50 mg/L
Cc1cc(C)nc(Nc2ccccc2)n1 [Pyrimethanil]	8.1	2.4	8.9	5.2	22.3	11.3	2.6	14.0	6.5	0.0						
N#Cc1c[nH]cc1-c1cccc2c1OC(F)(F)O2 [Fludioxonil]	2.9	0.0	3.3	0.0	40.8	11.2	3.1	12.8	2.8	8.3						
CC(COB1OCc2cc(F)ccc21)OB1OCc2cc(F)ccc21 (stereo not drawn) [Compound 31]																MIC [16]: 0.6 mg/L (≈ 1.74 µM); MIC [17]: 8.9 mg/L (≈ 25.9 µM); MIC [1]: 2 mg/L (≈ 5.82 µM); MIC [3]: 2 mg/L (≈ 5.82 µM); MIC [18]: 2 mg/L (≈ 5.82 µM); MIC [19]: 0.4 mg/L (≈ 1.16 µM); MIC [4]: 2 mg/L (≈ 5.82 µM); MIC [6]: 10 mg/L (≈ 29.1 µM)
COCCCOB1OCc2ccccc21 [Compound 7]											2.2 (≈ 10.7 µM)	17.9 (≈ 86.9 µM)	71.4 (≈ 347 µM)	8.9 (≈ 43.2 µM)	8.9 (≈ 43.2 µM)	
COB1OCc2ccccc21 [Compound 6]											2.2 (≈ 14.9 µM)	17.9 (≈ 121 µM)	17.9 (≈ 121 µM)	8.9 (≈ 60.1 µM)	4.5 (≈ 30.4 µM)	MIC [16]: 4.5 mg/L (≈ 30.4 µM); MIC [17]: 17.9 mg/L (≈ 121 µM); MIC [18]: 2 mg/L (≈ 13.5 µM); MIC [19]: 2 mg/L (≈ 13.5 µM)
OB1OCc2cc(Cl)ccc21 [Compound 201]											3.8 (≈ 22.6 µM)	29.5 (≈ 175 µM)	9.3 (≈ 55.2 µM)	8.5 (≈ 50.5 µM)	16.1 (≈ 95.6 µM)	
Nc1nc(=O)[nH]cc1F [5-Fluorocytosine, 5-fluorocytosine]																MIC [1]: > 50 mg/L; MIC [2]: > 50 mg/L; MIC [3]: > 50 mg/L; MIC [4]: > 50 mg/L; MIC [5]: > 50 mg/L; MIC [6]: > 50 mg/L
CC(C)OB1OCc2ccccc21 [Compound 9]											2.2 (≈ 12.5 µM)	8.9 (≈ 50.6 µM)	35.7 (≈ 203 µM)	8.9 (≈ 50.6 µM)	8.9 (≈ 50.6 µM)	
C=CCOC(Cn1ccnc1)c1ccc(Cl)cc1Cl (stereo not drawn) [Imazalil]	6.9	0.9	7.9	1.0	41.4	11.1	3.0	14.3	3.4	0.0						
c1ccc2[nH]c(-c3cscn3)nc2c1 [Thiabendazole]	8.2	1.9	9.1	5.4	>50	8.4	2.0	12.9	3.0	0.0						
